Columns and labels:
[1] = test system: T-Rex 293 cell line SC3 cells lacking increased expression of androgen receptor protein; assay: Cellular growth inhibition assay, T-Rex 293 SC3 cells without doxycycline (CellTiter-Glo, 72 hours); assay type: cell-based; settings: 72 h, T-Rex 293 cell line SC3 cells not exposed to doxycycline (lacking increased androgen receptor expression)
In short: (§1)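 Doxycycline (10 ng/mL) was either included or omitted to toggle wild-type androgen receptor expression in SC3 cells, a T-Rex 293 clone, grown in stripped-serum, phenol red-free medium. After 72 hours with compound, viable cells were quantified by CellTiter-Glo 2.0.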

[2] = test system: T-Rex 293 cell line SC3 cells having increased expression of androgen receptor protein due to exposure to doxycycline; assay: Cellular growth inhibition assay, T-Rex 293 SC3 cells with doxycycline (CellTiter-Glo, 72 hours); assay type: cell-based; settings: 72 h, T-Rex 293 SC3 cells with increased androgen receptor expression due to doxycycline (10 ng/mL)
In short: as §1

[3] = test system: VCaP cells; assay: Cellular growth inhibition assay for VCaP cells (CellTiter-Glo, 72 hours); assay type: cell-based, human; settings: Homo sapiens, VCaP, 72 h
In short: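 Luminescent viability signal after 72 h of compound exposure gave GI50 values by four-parameter nonlinear regression. Compounds were added in 0.5% DMSO to cells plated 24 h earlier at 5000/well in DMEM containing 10% FBS.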

[4] = test system: T47D cells; assay: Cellular growth inhibition assay for T47D cells (CellTiter-Glo, 72 hours); assay type: cell-based, human; settings: Homo sapiens, T47D, 72 h, 72 hours treatment
In short: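 Cells are plated at 3000/well and allowed 24 h before treatment. Test compound in medium containing 0.5% DMSO is then added, with DMSO-only wells as negative control, and plates are incubated 72 h at 37 °C. ATP luminescence (CellTiter-Glo 2.0) is then fitted to four parameters to derive GI50.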

Structure (SMILES)	GI50 [1] [nM]	GI50 [2] [nM]	GI50 [3] [nM]	GI50 [4] [nM]
Cc1sc2c(c1C)C(c1ccc(OC3CC4(C3)CC3(CCN(c5ccc(C(=O)N[C@H]6CC[C@H](Oc7ccc(C#N)c(Cl)c7)CC6)nn5)CC3)C4)nc1)=N[C@@H](C)c1nnc(C)n1-2 [I-436]	> 3000	< 500	< 500	500 to 1500
Cc1sc2c(c1C)C(c1ccc(OC[C@H]3C[C@@]4(CCCN(c5ccc(C(=O)N[C@H]6CC[C@H](Oc7ccc(C#N)c(Cl)c7)CC6)nn5)C4)C3)nc1)=N[C@@H](Cc1ncco1)c1nnc(C)n1-2 [I-263]	> 3000	< 500	< 500	500 to 1500
Cc1sc2c(c1C)C(c1ccc(CCN3[C@@H](C)CN(c4ccc(C(=O)N[C@H]5CC[C@H](Oc6ccc(C#N)c(Cl)c6)CC5)nn4)C[C@@H]3C)cc1)=N[C@@H](Cc1ncco1)c1nnc(C)n1-2 [I-379]	< 500	< 500	< 500	< 500
Cc1sc2c(c1C)C(c1ccc(OC[C@@H]3CC[C@@]4(CCCN(c5ccc(C(=O)N[C@H]6CC[C@H](Oc7ccc(C#N)c(Cl)c7)CC6)nn5)C4)C3)nc1)=N[C@@H](Cc1ncco1)c1nnc(C)n1-2 [I-330]	> 3000	< 500	< 500	> 3000
Cc1sc2c(c1C)C(c1ccc([C@H]3C[C@@H]3CC3CCCN(c4ccc(C(=O)N[C@H]5CC[C@H](Oc6ccc(C#N)c(Cl)c6)CC5)nn4)C3)cc1)=N[C@@H](Cc1ncco1)c1nnc(C)n1-2 (some centres unmarked) [I-202]	< 500	< 500	< 500	< 500
Cc1sc2c(c1C)C(c1ccc([C@H]3C[C@@H](C4CCN(c5ccc(C(=O)N[C@H]6CC[C@H](Oc7ccc(C#N)c(Cl)c7)CC6)nn5)CC4)C3)cc1)=N[C@H](Cc1ncco1)c1nnc(C)n1-2 [I-372]	< 500	< 500	< 500	< 500
Cc1sc2c(c1C)C(c1ccc(OC3CN(CC4CCN(c5ccc(C(=O)N[C@H]6CC[C@H](Oc7ccc(C#N)c(Cl)c7)CC6)nn5)CC4)C3)cc1)=N[C@H](Cc1ncco1)c1nnc(C)n1-2 [I-82]	< 500	< 500	< 500	< 500
Cc1sc2c(c1C)C(c1ccc(CC3CC4(CCN(c5ccc(C(=O)N[C@H]6CC[C@H](Oc7ccc(C#N)c(Cl)c7)CC6)nn5)CC4)C3)cc1)=N[C@@H](C)c1nnc(C)n1-2 [I-335]	> 3000	< 500	< 500	< 500
Cc1sc2c(c1C)C(c1ccc(CNC(=O)CN(C)c3ccc(C(=O)N[C@H]4CC[C@H](Oc5ccc(C#N)c(Cl)c5)CC4)nn3)cc1)=N[C@@H](Cc1ncco1)c1nnc(C)n1-2 [I-243]	500 to 1500	< 500	500 to 1500	500 to 1500
Cc1sc2c(c1C)C(c1ccc(CCC[C@H]3CCCN(c4ccc(C(=O)N[C@H]5CC[C@H](Oc6ccc(C#N)c(Cl)c6)CC5)nn4)C3)cc1)=N[C@@H](Cc1ncco1)c1nnc(C)n1-2 [I-277]	< 500	< 500	< 500	< 500
Cc1sc2c(c1C)C(c1ccc(CC3CN(CC4CCN(c5ccc(C(=O)N[C@H]6CC[C@H](Oc7ccc(C#N)c(Cl)c7)CC6)nn5)CC4)C3)cc1)=N[C@@H](Cc1ncco1)c1nnc(C)n1-2 [I-113]	500 to 1500	< 500	< 500	< 500
Cc1sc2c(c1C)C(c1ccc(OC[C@H]3C[C@]4(CCCN(c5ccc(C(=O)N[C@H]6CC[C@H](Oc7ccc(C#N)c(Cl)c7)CC6)nn5)C4)C3)nc1)=N[C@@H](Cc1ncco1)c1nnc(C)n1-2 [I-262]	> 3000	< 500	< 500	< 500
Cc1sc2c(c1C)C(c1ccc(C(=O)N3CC[C@]4(CCCN(c5ccc(C(=O)N[C@H]6CC[C@H](Oc7ccc(C#N)c(Cl)c7)CC6)nn5)C4)C3)cc1)=N[C@H](Cc1ncco1)c1nnc(C)n1-2 [I-272]	> 3000	< 500	1500 to 3000	1500 to 3000
Cc1sc2c(c1C)C(c1ccc([C@H]3C[C@@H]([C@H]4CCCN(c5ccc(C(=O)N[C@H]6CC[C@H](Oc7ccc(C#N)c(Cl)c7)CC6)nn5)C4)C3)cc1)=N[C@@H](Cc1ncco1)c1nnc(C)n1-2 [I-376]	< 500	< 500	< 500	< 500

Source: patent publication US20260109707A1, “HETEROBIFUNCTIONAL COMPOUNDS AND METHODS OF TREATING DISEASE” (Halda Therapeutics OpCo. Inc., priority 2022, published 2026)
